Data on 10 compounds can be found in patent US6028197A, “Dibenzo[a,g]quinolizinium derivatives and the salts thereof” (Hanwha Corporation, priority 1998, dated 2000).

One series has as its target T1, sterol 14-reductase (Rattus norvegicus, UniProt A0ACM8Q6X4).
T1 construct: microsome which was used as an enzyme source of sterol 14-reductase; from tissue; host or cells: liver microsomes of male Sprague-Dawley rats fed lovastatin and cholestyramine
T1 sequence (A0ACM8Q6X4 1-418): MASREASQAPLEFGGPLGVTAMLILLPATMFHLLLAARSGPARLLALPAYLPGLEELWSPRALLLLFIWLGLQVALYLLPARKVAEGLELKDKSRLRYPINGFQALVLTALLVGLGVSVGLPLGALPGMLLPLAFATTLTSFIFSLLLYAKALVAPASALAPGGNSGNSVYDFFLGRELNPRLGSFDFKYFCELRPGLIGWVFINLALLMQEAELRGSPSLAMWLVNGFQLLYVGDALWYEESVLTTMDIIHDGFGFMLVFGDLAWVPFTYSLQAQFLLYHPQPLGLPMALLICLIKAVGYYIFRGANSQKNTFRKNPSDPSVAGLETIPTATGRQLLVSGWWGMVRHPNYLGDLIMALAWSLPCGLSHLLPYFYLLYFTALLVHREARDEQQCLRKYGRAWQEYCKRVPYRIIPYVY
Kind of series: Inhibition of sterol 14-reductase in rat liver microsomes. It is filed as biochemical.

Another series has as its system HepG2 cells. Kind of series: Cholesterol biosynthesis in cultured human liver cell line ([1,2-14C]acetate incorporation). It is filed as cell-based. Particulars: compared with AY9944 (comparative drug). As to the method:
Cultured human liver HepG2 cell line was grown on RPMI (Rosewell park Memorial Institute) 1640 culture medium containing 10% PBS until 60% of monolayer are formed in a 60 mm culture dish. After replacing the medium with 3 ml of a fresh culture medium containing 10% (v/v) LPDS (Fetal calf lipoprotein-deficient serum), the cells were further grown for 48 hours until 90% of cultivation degree appear The culture medium was removed and the cell was then washed with PBS. 2 ml of culture medium containing compound no. 2 (final concentration 100 μM) and AY-9944 (final concentration 1 μM) were added thereto. Then, the medium was cultivated at 37° C. for 1 hour under the condition of 95% air/5% carbonic acid gas. AY-9944 which is an inhibitor for sterol 7-reductase was used as a control drug for assuring the present experimental procedure on the inhibition of cholesterol biosynthesis. Thereafter, 3 μCi of [1,2-^14 C]acetate (72 mCi/mmol) were added thereto. The cultivation was continued for 2 hours so that the isotope is introduced into the cell and used as a precursor for sterol to be synthesized. Then, the culture medium was completely removed and washed with PBS twice and the cells were collected by scratching. 10 μg of cholesterol, 10 μg of lanosterol and [^3 H]cholesterol (30,000 dpm) were added thereto, and saponification reaction was carried out at 70° C. for an hour by adding 7.5% of methanolic KOH solution. Unsaponified sterol was removed by extracting them three times with 3 ml of petroleum ether and dried with nitrogen purging. The dried samples were redissolved in 200 μl of chloroform. An aliquot of the samples was loaded onto Silicagel 60F thin layer plate and then separated using ethyl acetate/hexane 25/75 (v/v) as the developing solvent. The thin layer film was developed by exposure to Amersham Hyperfilm at -70° C. for 7 days. Cholesterol band were confirmed by comparing the band appeared in the film and that appeared in the iodine-stained thin layer. After scratching the cholesterol band, it was quantified by a liquid scintillation counter.

A further series relates to Syrian Golden Hamster. Description: In vivo effect on plasma lipids in Syrian Golden Hamster. Particulars: for HDL cholesterol, change versus normal diet control / LDL cholesterol, change versus normal diet control / Total cholesterol, change versus normal diet control / Triglyceride, change versus normal diet control / HDL cholesterol / LDL cholesterol / Total cholesterol / Triglyceride: 14 days; for total cholesterol, LDL-cholesterol, and triglyceride levels: compared with lovastatin; for HDL cholesterol / LDL cholesterol / Total cholesterol / Triglyceride: normal diet, plasma. Here is the method: In order to investigate the effect of the compound of formula (I) of the invention, the compound was orally administered into male Syrian Golden Hamsters having weights of 90~110 g for two weeks and blood was then taken from each animal. Plasma lipids, i.e., total cholesterol, LDL-cholesterol,HDL-cholesterol and triglycerides were analyzed using an automatic analyzer (Automatic analyzer model Hitachi 7150).
Male Syrian Golden Hamsters weighing 90~110 g distributed from Samyuk Animal Laboratory, Seoul, Korea were bred under the following conditions: they were maintained under reverse light cycle (light cycle: from 6 P.M to 6 A.M; dark cycle: from 6 A.M. to 6 P.M.). The food and water were supplied at 10 A.M. The commercially available standard rodent chows were used. The hamsters were divided into 6 or 7 animals per group. The animals were fasted for 12 hours before administrating the drug. Then, 5,6-dihydrodibenzo[a,g]quinolizinium salts (compound no. 2) dissolved in a 0.25% methyl cellulose solution was administered orally for 14 days at the indicated time per a day. After fasting animals for 24 hours from the last administration, blood was extracted using a cardiac puncture and plasma was then isolated. Plasma lipids, i.e., total cholesterol, LDL-cholesterol, HDL-cholesterol and triglyceride values were analyzed using Automatic Analyzer (Hitachi 7150).

Series [1] is described as follows: Acute oral toxicity in SD rats. The series is classed as in vivo. Particulars: rat, in vivo, po, rats. Here is the method:
(§1) Meanwhile, the toxicity of the compounds of the present invention was investigated as follows: i.e., the compounds were suspended into propylene glycol and then orally administered into each of 5 male and female SD rats at the age of 5-weeks that were fasted for 12 hours. Under the usual breeding conditions, general symptoms, weight change and lethal case of the above rats were monitored for two weeks. At the dose over 2,000 mg/kg of the compound nos. 2, 3, 9 and 68, general symptoms and the body weight change of the animals were normal and the lethal case was not observed.

The test system of the next series is SD rats. Description: Acute oral toxicity in SD rats. It is filed as in vivo. Conditions: for general symptoms and the body weight change: oral dose over 2,000 mg/kg, monitored for two weeks; for lethal case: rat, in vivo. Here is the method:
as §1

The mark [2] stands for this setting: read-out: Enzyme Activity (relative in vitro activity for sterol 14-reductase, IC50 class).

SMILES strings stand for the structures. pIC50: −log10 of the molar value. Read-outs that look alike come from different tables or passages of the source.

Procedure for sterol 14-reductase: 20 Male Sprague-Dawley rats weighing from 150 to 250 g have been fed for 7 days with a diet containing 0.1% (w/w) Lovastatin and 5% (w/w) Cholestyramine. The animals were fasted for 12 hours before excising liver tissues and then sacrificed by decapitation at midnight. An aqueous solution containing 0.25M of sucrose was injected into the hepatic portal vein to remove all the blood within the liver, and then, the liver was excised. The liver was homogenated with two volumes of buffer solution A (0.1M potassium phosphate, 1 mM reduced glutathione, 0.5 mM EDTA, 20% (v/v) glycerol, pH 7.4) by repeating pestles over 10 times and then, centrifuged with 900×g for 5 minutes to give a supernatant. The supernatant was centrifuged with 12,000×g for 20 minutes. The supernatant obtained was ultracentrifuged with 105,000×g for 90 minutes to give a microsome which was used as an enzyme source of sterol 14-reductase. Assay for sterol 14-reductase was carried out as follows:
60 mmol of 4,4-dimethyl-5α-cholesta-7,14-dien-3β-ol and 5,6-dihydrodibenzo-[a,g]quinolizinium salts (compound no. 2) dissolved in DMSO were added to an assay mixture (total volume 1.0 ml) containing 2 mg of the microsomal protein, 2 mM of NADPH and 25 mg of glucose plus 20 units of glucose oxidase with preincubations under nitrogen at 37° C. for 4 min. unless otherwise specified to establish anaerobic condition. Buffer A (0.1M potassium phosphate buffer, pH 7.4, including 1 mM reduced glutathione, 0.5 mM EDTA, and 20% (v/v) glycerol) used for incubation had been equilibrated with nitrogen, and nitrogen was exchanged for air in all sealed reaction flasks prior to the start of incubations. Incubation of the complete mixture was carried out anaerobically in sealed flasks for 10 min at 37° C. unless otherwise indicated. Incubations were terminated by the addition of 1 ml of ethanolic KOH followed by heating under reflux for 10 min. Sterols were extracted four times with 4 ml of petroleum ether, and the solvent was evaporated to dryness under a nitrogen stream. The resulting residue was dissolved in 200-500 μl of n-hexane for quantification by GLC at high sensitive attenuation. The activity of sterol 14-reductase was determined with the amount of the substrate wherein the double bonds of 14-carbon were reduced (for the amount reduced by 1 mg of the microsome protein for 1 minute).

One may read the LD50 as the dose at which mortality reaches 50%. As to `CCCOc1cc2c(cc1OCCC)-c1c(CC)c3ccc(OCCC)c(OCc4ccc(C(F)(F)F)cc4)c3c[n+]1CC2` [Compound No. 68, 5,6-dihydro-2,3-dipropoxybenzo[a]-13-ethyl-10-propoxy-9-(4-trifluoromethyl)benzyloxybenzo[g]quinolizinium chloride], the pIC50 at sterol 14-reductase (setting [2]) was over 6.00. The “inhibition of cholesterol biosynthesis in human HepG2 cell line” value with HepG2 cells was “markedly inhibited”. For the same compound, in the series with Syrian Golden Hamster (0.3 mg/kg/day oral), the “HDL cholesterol, change versus normal diet control” value is listed as -2.0%; the “LDL cholesterol, change versus normal diet control” value is on record as -41.1%; the “Total cholesterol, change versus normal diet control” value is on record as -33.1%; the “Triglyceride, change versus normal diet control” value is reported as -43.1%. In addition, in the series with Syrian Golden Hamster (0.3 mg/kg/day oral), the HDL cholesterol came to 58.6 ± 3 mg/dL, the LDL cholesterol came to 21.8 ± 3 mg/dL, the Total cholesterol was found to be 87.4 ± 6 mg/dL and the Triglyceride was 45.2 ± 7 mg/dL. For the same compound, in the series with Syrian Golden Hamster, the “total cholesterol, LDL-cholesterol, and triglyceride levels” value is “markedly decreased”. This compound showed a 50% lethal dose (LD50) at 336 h in series [1] (female) of over 3000 mg/kg. In series [1] (male), this compound yielded a 50% lethal dose (LD50) at 336 h of over 3000 mg/kg. Moreover, in the series on SD rats, the “general symptoms and the body weight change” value is reported as “normal”; the lethal case result was “not observed”.
For the compound `CCc1c2[n+](cc3c(OCc4ccc(C(C)(C)C)cc4)c(OC)ccc13)CCc1cc(OC)c(OC)cc1-2` [Compound No. 2, 5,6-dihydro-2,3-dimethoxybenzo[a]-9-[4-(tert-butyl)benzyloxy]-13-ethyl-10-methoxybenzo[g]quinolizinium chloride], the pIC50 at sterol 14-reductase (rat liver microsome, anaerobic, 10 min at 37° C., read-out: level of compound at which 50% of inhibition of the enzymatic activity was observed) was 6.52 to 7.00. Also, the pIC50 at sterol 14-reductase (setting [2]) was over 6.00. Besides, the “inhibition of cholesterol biosynthesis in human HepG2 cell line” value in the series with HepG2 cells is reported as “markedly inhibited”. Besides, in the series with Syrian Golden Hamster (0.3 mg/kg/day oral), the “HDL cholesterol, change versus normal diet control” value is recorded as “+11.4%”; the “LDL cholesterol, change versus normal diet control” value is -16.0%; the “Total cholesterol, change versus normal diet control” value is -11.5%; the “Triglyceride, change versus normal diet control” value is -14.6%. Besides, in the series on Syrian Golden Hamster (0.3 mg/kg/day oral), the HDL cholesterol was found to be 66.6 ± 7 mg/dL, the LDL cholesterol stood at 31.0 ± 3 mg/dL, the Total cholesterol is 115.8 ± 8 mg/dL and the Triglyceride was found to be 67.8 ± 8 mg/dL. Besides, the “total cholesterol, LDL-cholesterol, and triglyceride levels” value in the series with Syrian Golden Hamster is recorded as “markedly decreased”. The same compound returned a 50% lethal dose (LD50) at 336 h in series [1] (female) of over 2000 mg/kg. This compound displayed a median lethal dose (LD50) at 336 h in series [1] (male) of over 2000 mg/kg. In addition, in the series with SD rats, the “general symptoms and the body weight change” value is given as “normal”; the lethal case entry is on record as “not observed”.
Regarding `CC[C@H](C)C(=O)O[C@H]1C[C@@H](C)C=C2C=C[C@H](C)[C@H](CC[C@@H]3C[C@@H](O)CC(=O)O3)[C@H]21` [lovastatin, reference compound], in the series on Syrian Golden Hamster (6.0 mg/kg/day oral), the “HDL cholesterol, change versus normal diet control” value was “+11.2%”; the “LDL cholesterol, change versus normal diet control” value is recorded as -21.4%; the “Total cholesterol, change versus normal diet control” value is -17.6%; the “Triglyceride, change versus normal diet control” value is -30.1%. In the series on Syrian Golden Hamster (6.0 mg/kg/day oral), this compound displayed an HDL cholesterol of 67.0 ± 3 mg/dL, an LDL cholesterol of 29.1 ± 2 mg/dL, a Total cholesterol of 107.8 ± 9 mg/dL and a Triglyceride of 55.5 ± 7 mg/dL.
Consider `CCc1c2[n+](cc3c(OCc4ccc(CS(=O)(=O)c5ccccc5)cc4)c(OC)ccc13)CCc1cc(OC)c(OC)cc1-2` [Compound No. 38, 5,6-dihydro-2,3-dimethoxybenzo[a]-13-ethyl-10-methoxy-9-[4-(phenylsulfonylmethyl)benzyloxy]benzo[g]-quinolizinium chloride], for which the pIC50 on sterol 14-reductase (setting [2]) was 4.00 to 5.00.
Turning to `CCc1c2[n+](cc3c(OCc4c(F)c(F)c(C(F)(F)F)c(F)c4F)c(OC)ccc13)CCc1cc3c(cc1-2)OCO3` [Compound No. 52, 5,6-dihydro-2,3-methylenedioxybenzo[a]-13-ethyl-10-methoxy-9-(2,3,5,6-tetrafluoro-4-trifluoromethyl)benzyloxybenzo[g]quinolizinium iodide], on sterol 14-reductase (setting [2]), the pIC50 is 4.00 to 5.00.
Still for that read-out and setting: the figure for `CCc1c2[n+](cc3c(OCc4cc(OC)cc(OC)c4)c(OC)ccc13)CCc1cc(OC)c(OC)cc1-2` [Compound No. 35, 5,6-dihydro-2,3-dimethoxybenzo[a]-9-(3,5-dimethoxy)benzyloxy-13-ethyl-10-methoxybenzo[g]quinolizinium chloride] is under 4.00; for `CCc1c2[n+](cc3c(OCc4ccc(F)cc4C(F)(F)F)c(OC)ccc13)CCc1cc(OC)c(OC)cc1-2` [Compound No. 4, 5,6-dihydro-2,3-dimethoxybenzo[a]-13-ethyl-9-[4-fluoro-2-(trifluoromethyl)benzyloxy]-10-methoxybenzo[g]-quinolizinium chloride] it is 4.00 to 5.00.
With `C=C(COc1c(OC)ccc2c(CC)c3[n+](cc12)CCc1cc(OC)c(OC)cc1-3)C[Si](C)(C)C` [Compound No. 44, 5,6-dihydro-2,3-dimethoxybenzo[a]-13-ethyl-10-methoxy-9-[(3-trimethylsilyl)propen-2-yl]oxybenzo[g]quinolizinium chloride], at sterol 14-reductase (Enzyme Activity (relative in vitro activity for sterol 14-reductase, IC50 class)), the pIC50 was under 4.00.
For the compound `CCc1c2[n+](cc3c(OCc4cccc(Oc5ccccc5)c4)c(OC)ccc13)CCc1cc(OC)c(OC)cc1-2` [Compound No. 21, 5,6-dihydro-2,3-dimethoxybenzo[a]-13-ethyl-10-methoxy-9-(3-phenoxy)benzyloxybenzo[g]quinolizinium chloride], the pIC50 on sterol 14-reductase (setting [2]) was under 4.00.
The same measure, in the same setting: the figure for `CCc1c2[n+](cc3c(OCc4ccc(OC)cc4)c(OC)ccc13)CCc1cc(OC)c(OC)cc1-2` [Compound No. 22, 5,6-dihydro-2,3-dimethoxybenzo[a]-13-ethyl-10-methoxy-9-(4-methoxy)benzyloxybenzo[g]quinolizinium chloride] is under 4.00.
